Experiment: Binding affinity towards histamine receptor by inhibiting specific binding of [3H]-mepyramine (3 nM) in vitro to membranes of rat brain without cerebellum
Type: cell membranes

| Structure (SMILES) | IC50 [nM] |
| --- | --- |
| CCCCCCN1CCN2CC(c3ccccc3)c3ccccc3C2C1 (centres undefined) | > 10000 |
| CCCCN1CCN2CC(c3ccccc3)c3ccccc3C2C1 (cis isomer) | > 10000 |
| CCCN1CCN2CC(c3ccccc3)c3ccccc3C2C1 (cis isomer) | > 10000 |
| CCNCC1NCC(c2ccccc2)c2ccccc21 (cis isomer) | 5000 |
| CN(C)CC1c2ccccc2C(c2ccccc2)CN1C (cis isomer) | > 10000 |
| CN1CCN2CC(c3ccccc3)c3ccccc3C2C1 (trans isomer) | > 10000 |
| CNCC1NCC(c2ccccc2)c2ccccc21 (stereo in doubt; 4a) | 3500 |
| c1ccc(C2CN3CCNCC3c3ccccc32)cc1 (centres undefined) | > 10000 |
| c1ccc(CN2CCN3CC(c4ccccc4)c4ccccc4C3C2)cc1 (centres undefined) | > 10000 |
| CN1CCN2CC(c3ccc([N+](=O)[O-])cc3)c3ccc([N+](=O)[O-])cc3C2C1 (cis isomer) | > 10000 |
| c1ccc(CCN2CCN3CC(c4ccccc4)c4ccccc4C3C2)cc1 (centres undefined) | > 10000 |

These reach a lower IC50. Values come first.

| IC50 [nM] | Structure (SMILES) |
| --- | --- |
| 170 | CNCC1NCC(c2ccccc2)c2ccccc21 (stereo in doubt; 5) |
| 680 | COc1ccc(C2CN3CCN(C)CC3c3ccccc32)cc1 (centres undefined) |
| 520 | CN1CCN2CC(c3ccc([N+](=O)[O-])cc3)c3ccccc3C2C1 (cis isomer) |
| 60 | CN1CCN2CC(c3ccccc3)c3ccccc3C2C1 (stereo in doubt; 7a) |
| 2000 | CN(C)CC1NCC(c2ccccc2)c2ccccc21 (centres undefined) |
| 30 | CN(C)CCCN1c2ccccc2CCc2ccccc21 [IMIPRAMINE] |
| 14 | CN1CCN2c3ccccc3Cc3ccccc3C2C1 (centres undefined) [MIANSERIN] |
| 280 | CCN1CCN2CC(c3ccccc3)c3ccccc3C2C1 (centres undefined) |
| 860 | CN1CCN2CC(c3ccc(N)cc3)c3ccccc3C2C1 (cis isomer) |
| 190 | CN1CCN2CC(c3ccc(O)cc3)c3ccccc3C2C1 (centres undefined) |
| 380 | CN1CCN2CC(c3ccc(Cl)cc3)c3ccccc3C2C1 (centres undefined) |
| 2800 | CN1CCN2CC(c3ccccc3)c3ccccc3C2C1 (stereo in doubt; 10) |
| 40 | CN1CCN2CC(c3ccccc3)c3ccccc3C2C1 (single isomer, unassigned; (-)) |
